Drawing on US20240109864A1, “SUBSTITUTED PYRAZOLYL PIPERIDINE CARBOXYLIC ACIDS” (BAYER AKTIENGESELLSCHAFT, priority 2020, published 2024), this text covers MEC and EC50 for 16 compounds.

Where a name gives a salt, the structure may show the parent alone.

The test concerns the target T1, recombinant guanylate cyclase reporter cell line (Rattus norvegicus, UniProt P20595).
T1 construct: expressed in transfected cells
T1 sequence (P20595 1-619): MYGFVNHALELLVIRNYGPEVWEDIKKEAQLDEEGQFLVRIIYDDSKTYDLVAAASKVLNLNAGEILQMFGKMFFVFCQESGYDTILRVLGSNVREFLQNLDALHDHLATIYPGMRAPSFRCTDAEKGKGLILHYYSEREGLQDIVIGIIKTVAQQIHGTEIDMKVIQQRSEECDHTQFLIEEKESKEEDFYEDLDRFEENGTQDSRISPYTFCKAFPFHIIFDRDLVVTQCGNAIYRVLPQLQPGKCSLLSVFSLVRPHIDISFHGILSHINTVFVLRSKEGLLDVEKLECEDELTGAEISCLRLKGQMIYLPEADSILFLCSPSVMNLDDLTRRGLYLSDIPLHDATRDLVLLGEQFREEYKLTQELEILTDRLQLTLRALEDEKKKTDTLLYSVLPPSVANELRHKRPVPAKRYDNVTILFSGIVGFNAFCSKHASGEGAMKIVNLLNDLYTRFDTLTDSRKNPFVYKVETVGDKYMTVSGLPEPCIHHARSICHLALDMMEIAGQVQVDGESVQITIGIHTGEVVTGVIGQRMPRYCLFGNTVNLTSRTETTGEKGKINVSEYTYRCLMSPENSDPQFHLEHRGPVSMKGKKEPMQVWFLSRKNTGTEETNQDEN
T1 sequence (P19686 1-690 partner): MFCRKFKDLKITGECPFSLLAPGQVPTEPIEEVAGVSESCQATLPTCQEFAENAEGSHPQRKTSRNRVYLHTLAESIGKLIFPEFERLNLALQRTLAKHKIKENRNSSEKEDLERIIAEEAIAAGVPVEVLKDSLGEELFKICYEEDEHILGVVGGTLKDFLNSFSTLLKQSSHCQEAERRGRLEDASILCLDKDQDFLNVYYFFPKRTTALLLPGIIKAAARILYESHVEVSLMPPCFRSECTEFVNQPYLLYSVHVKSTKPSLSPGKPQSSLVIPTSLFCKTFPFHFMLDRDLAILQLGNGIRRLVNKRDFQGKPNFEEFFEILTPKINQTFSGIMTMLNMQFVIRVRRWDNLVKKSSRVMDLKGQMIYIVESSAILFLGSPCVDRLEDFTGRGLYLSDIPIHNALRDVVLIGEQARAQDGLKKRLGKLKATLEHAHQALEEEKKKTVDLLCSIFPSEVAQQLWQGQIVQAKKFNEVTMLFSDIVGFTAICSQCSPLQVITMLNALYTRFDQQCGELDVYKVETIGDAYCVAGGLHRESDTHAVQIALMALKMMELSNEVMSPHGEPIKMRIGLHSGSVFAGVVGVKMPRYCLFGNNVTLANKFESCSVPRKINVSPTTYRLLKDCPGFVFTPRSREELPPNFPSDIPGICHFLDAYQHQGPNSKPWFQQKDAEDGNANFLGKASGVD
Kind of test: Effect on a recombinant guanylate cyclase reporter cell line. Conditions: in some cases mean values from individual determinations; for MEC: MEC = minimum effective concentration; for EC50: half maximal effective concentration. In kind it is cell-based. As for the experimental part: The cellular activity of the compounds according to the invention was determined using a recombinant guanylate cyclase reporter cell line, as described in F. Wunder et al., Anal. Biochem. 339, 104-112 (2005).

With `O=C(O)c1cnn(C2CCCN(c3cc(Cl)ccc3-c3ccc(N4CCN(C(=O)[C@H]5CC5(F)F)CC4)cc3)C2)c1C(F)(F)F` (single isomer, unassigned) [Example 48, 1-[1-[5-Chloro-2-[4-[4-[2,2-difluorocyclopropanecarbonyl]piperazin-1-yl]phenyl]phenyl]-3-piperidyl]-5-(trifluoromethyl)pyrazole-4-carboxylic acid], the MEC was found to be 3.0 nM and the EC50 was 10.6 nM.
In the same order, the values of `O=C(O)c1cnn(C2CCCN(c3cc(Cl)ccc3-c3ccc(N4CCN(CC5(F)CC5)CC4)cc3)C2)c1C(F)(F)F` (single isomer, unassigned) [Example 9, 1-[1-[5-Chloro-2-[4-[4-[(1-fluorocyclopropyl)methyl]piperazin-1-yl]phenyl]phenyl]-3-piperidyl]-5-(trifluoromethyl)pyrazole-4-carboxylic acid hydrochloride] are 0.3 nM and 1.1 nM.
In the same order, the values of `CC(C)(C)CN1CCN(c2ccc(-c3ccc(Cl)cc3N3CCCC(n4ncc(C(=O)O)c4C(F)(F)F)C3)cc2)CC1` (single isomer, unassigned) [Example 18, 1-[1-[5-Chloro-2-[4-[4-(2,2-dimethylpropyl)piperazin-1-yl]phenyl]phenyl]-3-piperidyl]-5-(trifluoromethyl)pyrazole-4-carboxylic acid hydrochloride] are 10.0 nM and 63.5 nM.
The corresponding values for `CCCN1CCN(c2ccc(-c3ccc(Cl)cc3N3CCCC(n4ncc(C(=O)O)c4C(F)(F)F)C3)cc2)CC1` (single isomer, unassigned) [Example 4, 1-[1-[5-Chloro-2-[4-(4-propylpiperazin-1-yl)phenyl]phenyl]-3-piperidyl]-5-(trifluoromethyl)pyrazole-4-carboxylic acid hydrochloride] are 3.0 nM and 16 nM.
On to `CCCOC(=O)N1CCN(c2ccc(-c3ccc(Cl)cc3N3CCCC(n4ncc(C(=O)O)c4C(F)(F)F)C3)cc2)CC1` (single isomer, unassigned) [Example 58, 1-[1-[5-Chloro-2-[4-(4-propoxycarbonylpiperazin-1-yl)phenyl]phenyl]-3-piperidyl]-5-(trifluoromethyl)pyrazole-4-carboxylic acid], for which the MEC amounted to 10.0 nM and the 50% effective concentration (EC50) is 42.5 nM.
As for `O=C(O)c1cnn(C2CCCN(c3cc(Cl)ccc3-c3ccc(N4CCN(C(=O)C5CC5)CC4)cc3)C2)c1C(F)(F)F` (single isomer, unassigned) [Example 42, 1-[1-[5-Chloro-2-[4-[4-(cyclopropanecarbonyl)piperazin-1-yl]phenyl]phenyl]-3-piperidyl]-5-(trifluoromethyl)pyrazole-4-carboxylic acid], the MEC is on record as 1.0 nM and the EC50 is 4.2 nM.
`O=C(O)c1cnn(C2CCCN(c3cc(Cl)ccc3-c3ccc(N4CCN(CC5(F)CCC5)CC4)cc3)C2)c1C(F)(F)F` (single isomer, unassigned) [Example 23, 1-[1-[5-Chloro-2-[4-[4-[(1-fluorocyclobutyl)methyl]piperazin-1-yl]phenyl]phenyl]-3-piperidyl]-5-(trifluoromethyl)pyrazole-4-carboxylic acid hydrochloride]: the MEC was determined as 3.0 nM and the 50% effective concentration (EC50) was 27.5 nM.
For `O=C(O)c1cnn(C2CCCN(c3cc(Cl)ccc3-c3ccc(N4CCN(CC5CC56CC6)CC4)cc3)C2)c1C(F)(F)F` (single isomer, unassigned) [Example 30, 1-[1-[5-Chloro-2-[4-[4-(spiro[2.2]pentan-2-ylmethyl)piperazin-1-yl]phenyl]phenyl]-3-piperidyl]-5-(trifluoromethyl)pyrazole-4-carboxylic acid hydrochloride], the MEC was determined as 3.0 nM and the EC50 came out at 8.9 nM.
For the compound `O=C(O)c1cnn(C2CCCN(c3cc(Cl)ccc3-c3ccc(N4CCN(C[C@H]5C[C@H]5F)CC4)cc3)C2)c1C(F)(F)F` (single isomer, unassigned) [Example 29, hydrochloride], the MEC was 0.3 nM and the 50% effective concentration (EC50) is 6.9 nM.
Turning to `CN1CCN(c2ccc(-c3ccc(Cl)cc3N3CCCC(n4ncc(C(=O)O)c4C(F)(F)F)C3)c(Cl)c2)CC1` (single isomer, unassigned) [Example 72, 1-[1-[5-Chloro-2-[2-chloro-4-(4-methylpiperazin-1-yl)phenyl]phenyl]-3-piperidyl]-5-(trifluoromethyl)pyrazole-4-carboxylic acid formic acid adduct], the MEC stood at 10.0 nM and the 50% effective concentration (EC50) was 64.5 nM.
As to `O=C(O)c1cnn(C2CCCN(c3cc(Cl)ccc3-c3ccc(N4CCN(C(=O)C5CC5(F)F)CC4)cc3)C2)c1C(F)(F)F` (single isomer, unassigned) [Example 47, 1-[1-[5-Chloro-2-[4-[4-[2,2-difluorocyclopropanecarbonyl]piperazin-1-yl]phenyl]phenyl]-3-piperidyl]-5-(trifluoromethyl)pyrazole-4-carboxylic acid], the MEC was 3.0 nM and the EC50 worked out at 17 nM.
On to `CC(C)C(=O)N1CCN(c2ccc(-c3ccc(Cl)cc3N3CCCC(n4ncc(C(=O)O)c4C(F)(F)F)C3)cc2)CC1` (single isomer, unassigned) [Example 38, 1-[1-[5-Chloro-2-[4-[4-(2-methylpropanoyl)piperazin-1-yl]phenyl]phenyl]-3-piperidyl]-5-(trifluoromethyl)pyrazole-4-carboxylic acid], for which the MEC was determined as 3.0 nM and the EC50 came out at 15.5 nM.
On to `CCN1CCN(c2ccc(-c3ccc(Cl)cc3N3CCCC(n4ncc(C(=O)O)c4C(F)(F)F)C3)cc2)CC1` (single isomer, unassigned) [Example 3, 1-{1-[4-Chloro-4′-(4-ethylpiperazin-1-yl)[1,1′-biphenyl]-2-yl]piperidin-3-yl}-5-(trifluoromethyl)-1H-pyrazole-4-carboxylic acid hydrochloride], for which the MEC was found to be 10.0 nM and the EC50 was 66.5 nM.
With `O=C(O)c1cnn(C2CCCN(c3cc(Cl)ccc3-c3ccc(N4CCN(CC5CC(F)C5)CC4)cc3)C2)c1C(F)(F)F` (single isomer, unassigned) [Example 22, 1-[1-[5-Chloro-2-[4-[4-[(3-fluorocyclobutyl)methyl]piperazin-1-yl]phenyl]phenyl]-3-piperidyl]-5-(trifluoromethyl)pyrazole-4-carboxylic acid hydrochloride], the MEC was 2.0 nM and the EC50 came to 11.4 nM.
For `O=C(O)c1cnn(C2CCCN(c3cc(Cl)ccc3-c3ccc(N4CCN(CC(F)(F)F)CC4)nc3)C2)c1C(F)(F)F` (single isomer, unassigned) [Example 75, 1-[1-[5-Chloro-2-[6-[4-(2,2,2-trifluoroethyl)piperazin-1-yl]-3-pyridyl]phenyl]-3-piperidyl]-5-(trifluoromethyl)pyrazole-4-carboxylic acid], the MEC is listed as 3.0 nM and the half-maximal effective concentration (EC50) is 16 nM.
Consider `O=C(O)c1cnn(C2CCCN(c3cc(Cl)ccc3-c3ccc(C4CN(CCC(F)(F)F)C4)cc3)C2)c1C(F)(F)F` (single isomer, unassigned) [Example 78, 1-[1-[5-Chloro-2-[4-[1-(3,3,3-trifluoropropyl)azetidin-3-yl]phenyl]phenyl]-3-piperidyl]-5-(trifluoromethyl)pyrazole-4-carboxylic acid hydrochloride], for which the MEC came out at 1.0 nM and the concentration giving a half-maximal response (EC50) stood at 13.2 nM.

As a reminder, the EC50 is the concentration that produces a half-maximal response.
